# Assay results: ChEMBL document CHEMBL1142159, “Aph(3')-IIc, an aminoglycoside resistance determinant from Stenotrophomonas maltophilia” (2007)
# Assays:
# Escherichia coli [1] = conditions: DH5alpha
# Escherichia coli [2] = conditions: DH5alpha; remark: listed apart in the source
# [3] = test system: Stenotrophomonas maltophilia; assay: Antimicrobial activity against Stenotrophomonas maltophilia K279a mutant; type: functional
# [4] = test system: Stenotrophomonas maltophilia; assay: Antimicrobial activity against Stenotrophomonas maltophilia K279a (aph FS) mutant; type: functional
# Escherichia coli [5] = conditions: DH5alpha; remark: listed apart in the source
# Escherichia coli [6] = conditions: DH5alpha; remark: listed apart in the source
# Escherichia coli [7] = assay: Antimicrobial activity against recombinant Escherichia coli DHalpha expressing pBAD [aph(3')-2]; type: functional; conditions: DH5alpha
# Escherichia coli [8] = assay: Antimicrobial activity against recombinant Escherichia coli DH5-alpha expressing pBAD in the presence of arabinose; type: functional; conditions: DH5alpha
# Escherichia coli [9] = assay: Antimicrobial activity against recombinant Escherichia coli DH5alpha expressing pBAD; type: functional
# Escherichia coli [10] = assay: Antimicrobial activity against recombinant Escherichia coli DH5-alpha expressing pBAD [aph(3')-2] in the presence of arabinose; type: functional; conditions: DH5alpha
Compound,MIC (Escherichia coli [1]),MIC (Escherichia coli [2]),MIC [3],MIC [4],MIC (Escherichia coli [5]),MIC (Escherichia coli [6]),MIC (Escherichia coli [7]),MIC (Escherichia coli [8]),MIC (Escherichia coli [9]),MIC (Escherichia coli [10])
GENTAMICIN,1 µg/mL,1 µg/mL,16 µg/mL,16 µg/mL,1 µg/mL,1 µg/mL,,,,
butirosin,0.125 µg/mL,4 µg/mL,8 µg/mL,1 µg/mL,0.125 µg/mL,0.125 µg/mL,,,,
NCC[C@H](O)C(=O)N[C@@H]1C[C@H](N)[C@@H](O[C@H]2O[C@H](CN)[C@@H](O)[C@H](O)[C@H]2O)[C@H](O)[C@H]1O[C@H]1O[C@H](CO)[C@@H](O)[C@H](N)[C@H]1O [AMIKACIN],,,64 µg/mL,64 µg/mL,,,0.5 µg/mL,0.5 µg/mL,0.5 µg/mL,4 µg/mL
NC[C@@H]1O[C@H](O[C@H]2[C@@H](O)[C@H](O[C@@H]3[C@@H](O)[C@H](N)C[C@H](N)[C@H]3O[C@H]3O[C@H](CO)[C@@H](O)[C@H](O)[C@H]3N)O[C@@H]2CO)[C@H](N)[C@@H](O)[C@@H]1O [PAROMOMYCIN],,,256 µg/mL,64 µg/mL,,,0.25 µg/mL,0.25 µg/mL,0.25 µg/mL,128 µg/mL
CN[C@@H]1[C@@H](O)[C@@H](O[C@@H]2[C@@H](O)[C@H](O[C@H]3OC(CN)=CC[C@H]3N)[C@@H](N)C[C@H]2N)OC[C@]1(C)O [SISOMICIN],,,8 µg/mL,8 µg/mL,,,0.125 µg/mL,0.125 µg/mL,0.125 µg/mL,0.125 µg/mL
NC[C@H]1O[C@H](O[C@H]2[C@H](O)[C@@H](O[C@H]3O[C@H](CO)[C@@H](O)[C@H](N)[C@H]3O)[C@H](N)C[C@@H]2N)[C@H](N)C[C@@H]1O [TOBRAMYCIN],,,32 µg/mL,32 µg/mL,,,0.5 µg/mL,0.5 µg/mL,0.5 µg/mL,8 µg/mL
NC[C@@H]1O[C@H](O[C@H]2[C@@H](O)[C@H](O[C@@H]3[C@@H](O)[C@H](N)C[C@H](N)[C@H]3O[C@H]3O[C@H](CN)[C@@H](O)[C@H](O)[C@H]3N)O[C@@H]2CO)[C@H](N)[C@@H](O)[C@@H]1O [FRAMYCETIN],,,512 µg/mL,64 µg/mL,,,0.5 µg/mL,0.5 µg/mL,0.5 µg/mL,64 µg/mL
NC[C@@H]1O[C@H](O[C@H]2[C@@H](O)[C@H](O[C@@H]3[C@@H](O)[C@H](N)C[C@H](N)[C@H]3O[C@H]3O[C@H](CO)[C@@H](O)C[C@H]3N)O[C@@H]2CO)[C@H](N)[C@@H](O)[C@@H]1O[C@H]1O[C@H](CO)[C@@H](O)[C@H](O)[C@@H]1O [LIVIDOMYCIN],,,128 µg/mL,128 µg/mL,,,4 µg/mL,4 µg/mL,4 µg/mL,8 µg/mL
NC[C@H]1O[C@H](O[C@H]2[C@H](O)[C@@H](O[C@H]3O[C@H](CO)[C@@H](O)[C@H](N)[C@H]3O)[C@H](N)C[C@@H]2N)[C@H](O)[C@@H](O)[C@@H]1O [KANAMYCIN],,,256 µg/mL,8 µg/mL,,,,,,
